This is an account of results in article PMC3991570, “A Novel Highly Potent Autotaxin/ENPP2 Inhibitor Produces Prolonged Decreases in Plasma Lysophosphatidic Acid Formation In Vivo and Regulates Urethral Tension” (PLoS ONE, 2014).

Structures can show the parent of a compound that is named as a salt.

In data set [1] the target is T1, recombinant human ATX/ENPP2 (Homo sapiens, UniProt Q13822).
T1 construct: (His)6 (C); made in house; host or cells: baculovirus AcNPV; virus made in Sf9, protein expressed in expresSF+ insect cells, from culture supernatant
The data set is described as follows: FS-3 assay of LysoPLD activity (2 h). Type of data set: biochemical. The conditions noted are these: synthetic fluorescent substrate FS-3, 2 h; read-out: In vitro IC50, Recombinant human ATX/ENPP2, FS-3 (2 h). As for the experimental part: Recombinant ATX/ENPP2 protein (2 µg/ml) and various concentrations of the inhibitors were mixed and incubated at 37°C for 2 h in 100 mM Tris-HCl buffer (pH 8.0) containing 1%DMSO, 500 mM NaCl, 5 mM MgCl2, and 0.05% Triton X-100, in the presence of a fluorescent substrate FS-3 (1 µM). After incubation, fluorescence at 520 nm with excitation at 494 nm was measured.
(§1) Measurement points of choline production were plotted against the concentration of the inhibitor and the theoretical curve to obtain the IC50 value of the inhibitor for LysoPLD activity was obtained using the Activity Base version 7.1.0.39 software from ID Business Solutions Ltd.

Data set [2] addresses T1, recombinant human ATX/ENPP2. The data set can be described thus: Choline release assay, 16:0-LPC substrate, overnight (15 h) incubation. The data set is classed as biochemical. The following applies: about 15 h incubation, read-out: In vitro IC50, Recombinant human ATX/ENPP2, Choline (O/N). As for the experimental part:
A series of reaction mixtures containing different concentrations of the inhibitors were also tested in parallel using an overnight incubation. First, the aqueous solution of recombinant ATX/ENPP2 (final concentration 2 µg/ml) or plasma samples from various animal species (final concentration 40%) was added to the reaction mixture containing different concentrations of ATX/ENPP2 inhibitors, 1 mM 16:0-LPC, and 1% DMSO. Then, each mixture was incubated at 37°C for 15 h (primary reaction). Samples of each mixture were subjected to the secondary reaction with 10 volumes of 300 µM TOOS in 100 mM Tris-HCl solution (pH 8.5), 500 µM 4-aminoantipyrine, 600 mU/ml horseradish peroxidase, 3 U/ml choline oxidase, and 5 mM CaCl2, at 37°C for 20 min (secondary reaction). […] Measurement points of choline production were plotted against the concentration of the inhibitor and the theoretical curve to obtain the IC50 value of the inhibitor for LysoPLD activity was obtained using the Activity Base version 7.1.0.39 software from ID Business Solutions Ltd.

The target is the same in data set [3]. The data set can be described thus: Choline release assay, 16:0-LPC substrate, 30 min incubation. Type of data set: biochemical. The conditions noted are these: read-out: In vitro IC50, Recombinant human ATX/ENPP2, Choline (30 min). As for the experimental part:
In the choline release assay, a series of reaction mixtures containing different concentrations of the inhibitors were tested in parallel. Recombinant ATX/ENPP2 was dissolved in 100 mM Tris-HCl buffer (pH 9.0) containing 500 mM NaCl, 5 mM MgCl2 and 0.05% Triton X-100. First, the aqueous solution of recombinant ATX/ENPP2 (final concentration 2 µg/ml) was added to the reaction mixture containing different concentrations of the inhibitors, 1 mM 16:0-LPC, and DMSO 1%. Then, each mixture was incubated at 37°C for 30 min (primary reaction). A samples of each reaction mixture was subjected to the secondary incubation at 37°C for 30 min with 10 times the volume of 100 µM Amplex Red in 50 mM Tris-HCl buffer (pH 8.0), 1 U/ml horseradish peroxidase, 150 mU/ml choline oxidase and 5 mM CaCl2,. Fluorescence at 590 nm was measured with excitation at 544 nm and the amount of choline released in each reaction mixture was quantified based on a calibration curve created from a choline chloride standard.
as §1

For a further data set, the system named is plasma LPA. Also noted: method as in PMID 20392816. The conditions noted are these: at 24 h after administration; cited from earlier work.
Data set [4] has as its system urethane-anesthetized rats. The data set can be described thus: Intraurethral pressure (IUP) in urethane-anesthetized rats. Type of data set: in vivo, rat. How it is done: Male Crl∶CD(SD) rats (7–8 weeks old) were anesthetized by intraperitoneal administration of urethane at a dose of 1.5 g/5 ml/kg. An arterial catheter (JMS cut-down tube; C3, JMS, Japan) was inserted into the common carotid artery to monitor blood pressure. After the abdomen was opened, another catheter (inner diameter, 0.9 mm; outer diameter, 1.5 mm; Shin-Etsu Polymer, Japan) was inserted into the duodenum and held in place with a suture thread. The abdomen was then cut along the median line and the urethra was ligated in the proximity of the pubic bone. For measurement of intraurethral pressure (IUP), a urethral catheter (JMS cut-down tube; C3, JMS Inc., Japan) was inserted from the top side of the bladder through the urethra and held in place by ligation at the bladder neck. Finally, both the arterial catheter and urethral catheter were connected to a pressure transducer (Nihon Kohden, Japan), and the rat was placed on a warm mat (37°C). Blood pressure and IUP were measured by a recorder (Graphtec, Japan) using a torsion-pressure amplifier (Nihon Kohden, Japan).
ONO-8430506 was dissolved in an aqueous solution containing 1.1 times the equivalent amount of NaOH. After confirming stabilization of IUP, rats received either the inhibitor or tamsulosin at a dose of 2 ml/kg in an aqueous solution through the duodenal catheter. IUP and blood pressure were measured continuously during the 20-min after administration of either the inhibitor or tamsulosin. At the end of the 20-min period, heparinized blood was collected from the jugular vein of the rat to prepare a plasma sample. Rats were then euthanized by intravenous administration of 1 ml of pentobarbital (Somunopentyl, Kyoritsu Seiyaku Corporation). Postmortem IUP was measured until the lowest IUP value was reached and stabilized. The maximum percent decreases relative to the difference between baseline IUP and postmortem IUP was calculated to measure the change from baseline in IUP during the 20-min after drug administration.

For data set [5], the system named is urethane-anesthetized rats. The data set is described as follows: Mean blood pressure in urethane-anesthetized rats. Type of data set: in vivo, rat. The following applies: intraduodenal, up to 3 mg/kg (tamsulosin at the same dose range). How it is done: Male Crl∶CD(SD) rats (7–8 weeks old) were anesthetized by intraperitoneal administration of urethane at a dose of 1.5 g/5 ml/kg. An arterial catheter (JMS cut-down tube; C3, JMS, Japan) was inserted into the common carotid artery to monitor blood pressure. After the abdomen was opened, another catheter (inner diameter, 0.9 mm; outer diameter, 1.5 mm; Shin-Etsu Polymer, Japan) was inserted into the duodenum and held in place with a suture thread. The abdomen was then cut along the median line and the urethra was ligated in the proximity of the pubic bone. […] Blood pressure and IUP were measured by a recorder (Graphtec, Japan) using a torsion-pressure amplifier (Nihon Kohden, Japan).
ONO-8430506 was dissolved in an aqueous solution containing 1.1 times the equivalent amount of NaOH. […] IUP and blood pressure were measured continuously during the 20-min after administration of either the inhibitor or tamsulosin. […] Postmortem IUP was measured until the lowest IUP value was reached and stabilized. The maximum percent decreases relative to the difference between baseline IUP and postmortem IUP was calculated to measure the change from baseline in IUP during the 20-min after drug administration.

A further data set concerns isolated rat urethra. The data set can be described thus: Contraction of isolated rat urethra (Magnus apparatus). The following applies: 100 nM to 30 µM added cumulatively. How it is done: Krebs-Henseleit buffer (112 mM NaCl, 5.9 mM KCl, 2.0 mM CaCl2, 1.2 mM MgCl2, 1.2 mM NaH2PO4, 25.0 mM NaHCO3 and 11.5 mM glucose) was prepared and aerated with 95%O2+5%CO2. 8-week old male CD (SD) IGS rats (Charles River Laboratories Japan, Inc.) were decapitated and exsanguinated. The urethra was excised and immediately immersed in ice-cooled Krebs-Henseleit buffer. The excised urethra was cut open and flattened using ophthalmologic scissors. The opened and flattened urethra was cut along the circular muscle into ‘ring-shaped’ strips 2–3 mm in width×3–4 mm in length using a razor. One ‘ring-shaped’ urethral specimen was prepared for each male rat.
Each prepared urethral specimen was hung inside a 5-ml Magnus tube filled with Krebs-Henseleit buffer (30°C). A resting tension of approximately 0.5 g was applied to the specimen for 60 min until it was stabilized. Thereafter, contraction motions of the specimen were recorded on a linear recorder (Model WR3320, Graphtec Corp.) after being amplified by a torsion-pressure amplifier (Models AP-641G and AP-601G, Nihon Kohden Corporation) and a force displacement pick-up transducer (Model TB-611T, Nihon Kohden Corporation). […] Phenylephrine (10 nM to 1 mM, Sigma-Aldrich) or 18:3-LPA (100 nM to 30 µM) was cumulatively added to the medium and the contractile force of each urethral specimen was measured.

Regarding `O=C1S/C(=C\c2ccc(OCc3cccc(B(O)O)c3)cc2)C(=O)N1Cc1ccc(F)cc1` [HA130], the IC50 in data set [1] is 120 nM; in data set [2], 580 nM; in data set [3], 43 nM.

Take `O=C(CCN1CCN(C(=O)OCc2cc(Cl)cc(Cl)c2)CC1)c1ccc2[nH]c(=O)oc2c1` [PF-8380]: the “plasma LPA level after oral administration” value in the data set with plasma LPA is listed as “returned to the normal baseline level”.

Consider `CCCCCCCCCCCCCC(=O)Nc1ccc(CP(=O)(O)O)cc1` [S32826], for which the IC50 in data set [1] was 17 nM; in data set [2], above 10000 nM; in data set [3] it was 66 nM.

As for `CCOc1ccccc1OCCN[C@H](C)Cc1ccc(OC)c(S(N)(=O)=O)c1` [tamsulosin, tamsulosin hydrochloride], the “decrease in IUP” value in data set [4] (0.3 mg/kg intraduodenal, maximum percent decrease during 20 min) stood at 28%. Further, in data set [4] (intraduodenal), the “dose of maximum effect on IUP” value was determined as 0.3 mg/kg and the “doses at which IUP decreased” value is “higher than 0.03 mg/kg”. In data set [5], the “effect on mean blood pressure (MBP)” value was “drastically decreased”.

For “linolenoyl-lysophosphatidic acid [18:3-LPA]”, the “contractile effect in isolated rat urethra” value in the data set with isolated rat urethra is “comparable to phenylephrine”.
